Measurements published in patent US11191774B2, “Drug formulations for cancer treatment” (The Regents of the University of California, priority 2015, dated 2021).
Values joined by “and” are separate entries in the source; they are usually repeats but may differ in a detail not shown here. Identical values can stand only once.

What was measured:
[1] = tested on: MDA-MB-231 breast cancer cell line; experiment: 5FURW cell viability studies (Example 4); assay type: cell-based, human; conditions: for IC50: Homo sapiens
Description: (§1) Two breast cancer cell lines (of mouse and human, 4T1 and MDA-MB-231) were tested with the synthesized 5FURW, compared with 5FU and also with encapsulated drug in liposomes functionalized with amino and carboxyl groups (Table 4, FIG. 13).

[2] = tested on: BT-474 human breast cancer cells; experiment: Combination Index (CI) study of free drugs, MTT cell viability; assay type: cell-based
Description: (§2) For cell viability studies, BT-474 cells were seeded at a density of 10,000 cells per well in 100 μL cell culture medium, grown overnight and incubated with drug solutions for 72 hours. Cell viability was assessed post drug-incubation via 3-(4,5-Dimethylthiazol-2-yl)-2,5-diphenyltetrazolium bromide (MTT; Invitrogen Life Technologies) assays. Individual drug concentrations which inhibit 50% cell growth (D50) were first determined by fitting dose-effect data to the median-effect model (Chou and Talalay, Advances in Enzyme Regulation 1984, 22, 27-55). For combinatorial studies, 5FU and DOX were simultaneously incubated with BT-474 cells at ratios of differing multiples of their D50 concentrations, and cell viability was subsequently assessed. CI values were further calculated, as previously described (Chou, Pharmacological Reviews 2006, 58(3): p. 621-621), with the designations of CI<1, CI=1, and C>1 respectively representing synergy, additivity, and antagonism. The same methodology was applied to assess interactions between all other chemotherapy combinations presented.

[3] = tested on: 4T1 breast cancer cell line; experiment: 5FURW cell viability studies (Example 4); assay type: cell-based, mouse; conditions: for IC50: Mus musculus
Description: as §1

[4] = Liposome size and zeta potential (dynamic/electrophoretic light scattering); assay type: physicochemical; conditions: liposomes 80:10:10 DSPC:DOTAP:Chol containing the 5FU analogue
Description: To measure drug encapsulation, 50 μL of drug-loaded liposomes were dissolved in 950 μL methanol through vortexing and sonication. The dissolved liposomes were centrifuged at 12000 g for 20 minutes to allow the lipids to pellet. The supernatant was collected, diluted serially, and their absorbances were measured at 480 nm, 266 nm, 264 nm, 268 nm, 268 nm, and 394 nm to quantify DOX, 5FU, 5FUG, 5FUW, 5FUR, and 5FURW concentrations, respectively. Drug encapsulation is reported as the mol % of drug with respect to lipids±SD. Liposome sizes and ζ potentials were determined utilizing dynamic light scattering and electrophoretic light scattering, respectively, on a Malvern ZSizer Nano ZS. Samples were diluted 100× in distilled de-ionized water immediately prior analysis, and each measurement is reported as an average of 3 independent sets of at least 13 runs each ±SD.

[5] = tested on: ROS generation in BT-474 cells; experiment: Reactive oxygen species generation, carboxy-H2DCFDA confocal microscopy; assay type: cell-based, human; conditions: 72 hours incubation
Description: To visualize and assess the production of reactive oxygen species (ROS), cells were seeded in an 8-well chambered borosilicate coverglass (Nunc Lab-Tek) at a density of 85,000 cells per well in 300 μL medium and grown overnight prior to incubation with drug solutions in fresh medium. After incubation of BT-474 cells with either 5FU and DOX at a molar ratio of 819:1, 5FU alone, or DOX alone for 72 hours, cells were washed three times in PBS and exposed to 10 μM carboxy-H2DCFDA (Invitrogen Life Technologies) in phosphate buffered saline (PBS; Theimo Scientific) for 30 minutes at 37° C. and 5% CO2. Upon acetate cleavage and oxidation, carboxy-H2DCFDA formed carboxydichlorofluorescein and acted as an ROS indicator. Cells were washed thrice more in PBS, finally suspended in cell culture medium, and immediately imaged live using an Olympus Fluoview 1000 spectral confocal microscope. Carboxydichlorofluorescein and DOX were both excited utilizing a 488 nm 10 mW Argon gas laser and visualized with 492-560 nm and 574-674 nm optical filters, respectively. Images were captured as 10 μm z-stacks, and each z-stack was averaged into a single image using ImageJ 1.47 h software (NIH). Fluorescence intensity is reported as the raw integrated density divided by number of cells, determined by DOX fluorescence which coincided with cell nuclei.

[6] = Drug encapsulation in liposomes (absorbance after dissolution); assay type: physicochemical; conditions: for Drug Incorporation: liposomes 80:10:10 DSPC:DOTAP:Chol containing the 5FU analogue; for enhancement of liposomal drug encapsulation relative to 5FU: cationic liposomes
Description: The dissolved liposomes were centrifuged at 12000 g for 20 minutes to allow the lipids to pellet. […] Drug encapsulation is reported as the mol % of drug with respect to lipids±SD. Liposome sizes and ζ potentials were determined utilizing dynamic light scattering and electrophoretic light scattering, respectively, on a Malvern ZSizer Nano ZS. Samples were diluted 100× in distilled de-ionized water immediately prior analysis, and each measurement is reported as an average of 3 independent sets of at least 13 runs each ±SD. Drug encapsulation was evaluated for each drug, and the encapsulation methods reported here provided the highest yield for each respective drug. […] To remove free drug, liposomes were finally passed through a Sephadex G-25 PD-10 column.

[7] = tested on: MCF 10A human breast epithelial cells; experiment: MTT toxicity against healthy epithelial cells; assay type: cell-based; conditions: synergistic ratio R=819 vs single drug
Description: as §2
These cell types were chosen because any systemically-administered drug is susceptible to interactions and uptake by endothelial cells, as well as epithelial cells in surrounding healthy tissue.

[8] = Encapsulation efficiency and loading capacity of drug-loaded liposomes (Example 4); assay type: physicochemical; conditions: 5FURW in PEGylated liposomes, 2 h encapsulation
Description: Liposomes were prepared with a mixture of DSPC:DSPE-PEG(2000)Amine or DSPE-PEG(2000)Carboxyl:Cholesterol:DOTAP with the ratio 75:5:10:10 via the thin lipid film formation. After the formation of the lipids and passing them through an extruder to obtain monodisperse 100 nm liposomes, the external solvent was changed using a size exclusion column and the drug encapsulated during two hours. Briefly, the thin lipid films were hydrated with 250 mM (NH4)SO4 to form liposomes containing either amine-terminated PEG or carboxy-terminated PEG. 1 mL of liposomes and 200 μL of 73 mM 5FURW were used for the encapsulation of 5FURW into the liposomes. […]
The encapsulation efficiency and loading capacity were calculated as follows: […]
The liposomes were characterized using (i) the Steward assay to determine lipid concentration, (ii) absorbance at 270 nm to evaluate 5FURW concentration, and (iii) dynamic light scattering measurements to evaluate size and surface potential. […]
The DAFODIL fabrication procedure was performed as follows. […] Characterization consisted of absorbance measurements at 270 nm and 480 nm to determine the concentration of 5FURW and DOX, respectively, dynamic light scattering measurements to measure liposome size and surface potential, and Stewart assay to quantify the concentration of lipids in the sample.

BT-474 cells = experiment: Liposomal cancer cell growth inhibition, calcein-AM viability assay; assay type: cell-based, human
Description: (§3) In vitro anticancer efficacy of drug-loaded liposomes was determined via calcein-AM cell viability assay. BT-474 cells or 4T1 cells were seeded in a 96-well cell culture plate at a density of 11,000 cells per well or 1,000 cells per well in a total volume of 100 μL media and allowed to adhere overnight. Media was then replaced with fresh media containing liposomes and incubated for 72 hours or 48 hours for BT-474 or 4T1 cells, respectively. The discrepancies of cell seeding densities and drug incubation times between BT-474 cells and 4T1 cells is due to the much lower doubling time of 4T1 cells compared to BT-474. Parameters were modified such that untreated cells reached 70% confluency after treatment. After incubation with liposomes, media was aspirated and replaced with 1 μM calcein-AM in PBS for 30 minutes at room temperature. Fluorescence intensity of intracellularly hydrolyzed calcein-AM was measured using excitation and emission wavelengths of 490 nm and 520 nm. Fractional cell inhibition was calculated by subtracting fluorescence of live cells in experimental wells from those of untreated cells and normalizing against untreated cells. D50 concentrations were determined by fitting experimental data to the median-effect model (Chou and Talalay, Advances in Enzyme Regulation 1984, 22, 27-55), and their error is reported as the standard error of the model fit.

[9] = literature (Haran et al.); cited from earlier work
[10] = tested on: 4T1 murine breast cancer cells; experiment: Liposomal cancer cell growth inhibition, calcein-AM viability assay; assay type: cell-based, mouse; conditions: 4T1, W concentrations expected during 5FURW cytotoxicity assays, free or liposome-encapsulated
Description: as §3

## O=c1[nH]cc(F)c(=O)[nH]1 [5FU, 5-fluorouracil, reference compound]
[1]
  IC50: 50.4 µM
[2]; same 5FU concentrations, combination at R=819, FIG. 3B
  BT-474 cancer cell growth inhibited: 40%
[3]
  IC50: 104 µM
[4]
  Size: 173.5 ± 43 nm
  Zeta Potential: 41.7 ± 9.8 mV
[5]
  ROS generation: negligible ROS generation
[6]
  Drug Incorporation: 0.7 mol % and 0.7 ± 0.2 mol %
[7]
  reduction of D50 ratio (BT-474 relative to MCF 10A) by combining at R=819, relative to individual drug: 36 fold

## NCC(=O)OCn1cc(F)c(=O)[nH]c1=O [5FUG, 1-[(aminomethyl)-ester]methylene-5-fluorouracil]
[4]
  Size: 161.8 ± 10.8 nm
  Zeta Potential: 41.2 ± 1.8 mV
[6]
  Drug Incorporation: 1.4 mol % and 1.4 ± 0.5 mol %

## O=c1[nH]c(=O)n([C@@H]2O[C@H](CO)[C@@H](O)[C@H]2O)cc1F [5FUR, 5-fluorouridine, reference compound]
[4]
  Size: 177.4 ± 2.8 nm
  Zeta Potential: 37.9 ± 1.0 mV
[6]
  enhancement of liposomal drug encapsulation relative to 5FU: ~5 fold
  Drug Incorporation: 3.7 mol % and 3.7 ± 0.2 mol %

## NC(Cc1c[nH]c2ccccc12)C(=O)OC[C@H]1O[C@@H](n2cc(F)c(=O)[nH]c2=O)C(OC(=O)C(N)Cc2c[nH]c3ccccc23)C1OC(=O)C(N)Cc1c[nH]c2ccccc12 (some centres unmarked) [5FURW, 5-fluorouridine-2′, 3′, 5′-tritryptophanate]
[1]
  activity relative to 5FU: 127 fold
  IC50: 0.396 µM
[2]; free solution and liposomes, FIGS. 5A and 5B
  anticancer activity compared with 5FUR: same anticancer activity as unmodified 5FUR
[3]
  activity relative to 5FU: 2.5 fold
  IC50: 41.2 µM
[4]
  Size: 163.8 ± 17.2 nm
  Zeta Potential: 32.2 ± 6.5 mV
[8]
  encapsulation efficiency: 20%
  loading capacity: 20%
[6]
  enhancement of liposomal drug encapsulation relative to 5FU: 38 fold
  Drug Incorporation: 26.6 ± 2.4 mol %

## N[C@@H](Cc1c[nH]c2ccccc12)C(=O)OCn1cc(F)c(=O)[nH]c1=O [5FUW, (5-fluoro-2,4-dioxo-3,4-dihydropyrimidin-1(2H)-yl)methyl tryptophanate]
[4]
  Size: 167.4 ± 1.8 nm
  Zeta Potential: 19.6 ± 0.6 mV
[6]
  Drug Incorporation: 3.2 mol % and 3.2 ± 0.4 mol %

## COc1cccc2c1C(=O)c1c(O)c3c(c(O)c1C2=O)C[C@@](O)(C(=O)CO)C[C@@H]3O[C@H]1C[C@H](N)[C@H](O)[C@H](C)O1 [DOX, doxorubicin]
BT-474 cells; BT-474, 72 hrs, fit to ME model, read-out: D50 (DOX-equivalent concentration inhibiting 50% cell growth)
  IC50: 0.3 µM
[9]
  liposomal encapsulation of DOX: 14-24 mol %
[5]
  ROS generation: Little ROS generation
[7]
  reduction of D50 ratio (BT-474 relative to MCF 10A) by combining at R=819, relative to individual drug: 5 fold

## N[C@@H](Cc1c[nH]c2ccccc12)C(=O)O [tryptophan]
[10]
  toxicity: non-toxic
BT-474 cells; BT-474, W concentrations expected during 5FURW cytotoxicity assays, free or liposome-encapsulated
  toxicity: non-toxic
